The text below walks through data of publication PMC4655142 (Neuropharmacology, 2015).

Data set [1] concerns the target [125I]-epibatidine binding sites (α4β2-nAChR), cortex membranes (Mus musculus, UniProt O70174+Q9ERK7). Briefly: Inhibition of [125I]-epibatidine binding to cortex membranes. Further details: species or system C57Bl/6J mice.
The conditions of data set [2]: cited from earlier work.
For data set [3] the following is noted: cited from earlier work. This is another data set of the same source.
The conditions of data set [4]: cited from earlier work. This is another data set of the same source.
The test system of data set [5] is C57Bl/6J mice. As to the kind of experiment: Tolerance to acute nicotine after chronic treatment. The format is in vivo. Conditions: Mus musculus, ip.

Where two headings read alike, the source gives them in different places.

Sequence of [125I]-epibatidine binding sites (α4β2-nAChR), cortex membranes (O70174 31-629): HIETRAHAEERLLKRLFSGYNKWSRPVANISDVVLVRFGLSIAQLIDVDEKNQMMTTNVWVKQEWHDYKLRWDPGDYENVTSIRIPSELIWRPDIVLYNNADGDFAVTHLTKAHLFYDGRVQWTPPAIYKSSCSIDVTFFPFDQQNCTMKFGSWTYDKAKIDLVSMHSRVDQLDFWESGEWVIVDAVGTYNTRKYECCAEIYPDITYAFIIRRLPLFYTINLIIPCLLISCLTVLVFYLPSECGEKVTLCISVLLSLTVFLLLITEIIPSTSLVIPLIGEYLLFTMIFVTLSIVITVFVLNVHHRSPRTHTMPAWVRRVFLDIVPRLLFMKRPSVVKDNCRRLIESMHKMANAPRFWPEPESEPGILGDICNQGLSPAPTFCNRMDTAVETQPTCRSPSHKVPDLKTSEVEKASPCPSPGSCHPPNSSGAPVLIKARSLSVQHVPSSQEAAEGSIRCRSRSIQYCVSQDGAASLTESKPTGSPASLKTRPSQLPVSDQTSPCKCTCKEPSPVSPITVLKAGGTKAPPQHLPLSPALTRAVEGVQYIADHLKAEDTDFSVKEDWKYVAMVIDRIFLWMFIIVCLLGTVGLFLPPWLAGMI
Sequence of [125I]-epibatidine binding sites (α4β2-nAChR), cortex membranes (Q9ERK7 26-501): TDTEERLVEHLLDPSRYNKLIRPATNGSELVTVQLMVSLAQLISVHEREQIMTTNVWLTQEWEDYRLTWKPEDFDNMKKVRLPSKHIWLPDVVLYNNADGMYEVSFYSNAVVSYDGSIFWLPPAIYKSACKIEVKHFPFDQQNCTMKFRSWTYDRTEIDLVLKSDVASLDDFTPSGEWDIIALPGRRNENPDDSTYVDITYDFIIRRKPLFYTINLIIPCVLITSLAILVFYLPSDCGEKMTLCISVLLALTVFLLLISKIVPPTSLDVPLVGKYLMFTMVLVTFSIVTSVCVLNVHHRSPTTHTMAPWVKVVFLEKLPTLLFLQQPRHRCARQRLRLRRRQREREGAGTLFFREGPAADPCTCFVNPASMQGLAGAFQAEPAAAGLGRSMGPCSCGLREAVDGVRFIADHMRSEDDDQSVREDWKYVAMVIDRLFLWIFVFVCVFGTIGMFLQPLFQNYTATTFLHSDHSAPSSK

Broadly, the Ki is the equilibrium dissociation constant of an inhibitor or competing ligand from its target. A higher Ki goes with weaker binding. In data set [1], `c1cnc2cc3c(cc2n1)[C@@H]1CNC[C@H]3C1` [Varenicline] returned a Ki of 0.11 ± 0.01 nM. For the same molecule, the “brain:plasma ratio” value in data set [2] (rats, ref Hussmann, Turner et al, 2012) is 1.5. The Plasma level entry in data set [3] (humans taking varenicline, smoking cessation study, ref Dobrinas et al, 2011) was “up to 20 ng/ml”; in data set [3] (humans, single oral dose 1 mg (~[…]), ref Obach et al, 2006, Al-Haj et al, 2013) it was 4 to 6 ng/mL. The “t ½” value in data set [3] (humans, ref Obach et al, 2006) is 17.6 h. Moreover, the Peak plasma level in data set [4] (mice, single oral dose of 3 mg (or ~120 mg/kg), ref Obach et al, 2006) is 293 ng/mL.

The ED50 is the midpoint of the dose-response relation. For the molecule `CN1CCC[C@H]1c1cccnc1` [Nicotine], the ED50 amounted to 0.8 ± 0.05 mg/kg in data set [5] (24 h, read-out: ED50 of acute ip nicotine, Body temperature); 0.6 ± 0.06 mg/kg in data set [5] (24 h, read-out: ED50 of acute ip nicotine, Open field); 0.49 ± 0.04 mg/kg in data set [5] (24 h, read-out: ED50 of acute ip nicotine, Y-maze cross); 0.38 ± 0.03 mg/kg in data set [5] (24 h, read-out: ED50 of acute ip nicotine, Y-maze rear); 0.88 ± 0.09 mg/kg in data set [5] (read-out: ED50 of acute ip nicotine, Body temperature); 0.55 ± 0.06 mg/kg in data set [5] (read-out: ED50 of acute ip nicotine, Open field). Also, the ED50 in data set [5] (read-out: ED50 of acute ip nicotine, Y-maze cross) turned out to be 0.47 ± 0.06 mg/kg; in data set [5] (read-out: ED50 of acute ip nicotine, Y-maze rear), 0.38 ± 0.05 mg/kg. Also, the Plasma level in data set [2] (rat, sc infusion of 2.4 mg/kg/day, ref Rowell and Li, 1997) is 43 ng/mL; in data set [2] (rats, 0.8 mg/kg/day, ref Ghosheh et al, 2001), 6.5 ng/mL; in data set [2] (rats, 6.0 mg/kg/day, ref Hussman, Turner et al, 2012, Doura et al, 2008), 146 to 313 ng/mL; in data set [3] (human smokers, pre-quit, smoking cessation trial, ref Dobrinas et al, 2011), “up to 52 ng/ml”; in data set [4] (mice, 12-24 mg/kg/day, ref Marks, Rowell et al., 2004, Matta et al, 2007), 40 to 80 ng/mL; in data set [4] (mice, similar chronic treatment protocols, ref Marks, Rowell et al., 2004), 40 to 80 ng/mL. Also, in data set [4] (mouse, in vivo, sc, 1 mg/kg), the Plasma level is 160 ng/mL.
